{
  "source": "paper PMC11864979",
  "about": "“First-in-class ultralong-target-residence-time p38α inhibitors as a mitosis-targeted therapy for colorectal cancer” (Nature Cancer, 2025)",
  "key": {"340 wild-type kinases [1]": {"biological_target": "T1, 340 wild-type kinases (Homo sapiens, UniProt Q00526)", "T1 construct": "purchased Reaction Biology Europe", "T1 sequence (Q00526 whole entry)": "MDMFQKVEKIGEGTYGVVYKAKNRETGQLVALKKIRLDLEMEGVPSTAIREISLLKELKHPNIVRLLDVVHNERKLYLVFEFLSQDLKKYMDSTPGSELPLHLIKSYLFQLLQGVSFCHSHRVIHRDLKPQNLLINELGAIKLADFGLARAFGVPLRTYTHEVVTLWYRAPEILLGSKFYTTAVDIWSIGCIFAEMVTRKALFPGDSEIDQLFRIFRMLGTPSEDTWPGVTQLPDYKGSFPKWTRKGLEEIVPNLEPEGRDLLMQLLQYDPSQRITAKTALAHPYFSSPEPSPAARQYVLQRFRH", "assay": "selectivity profiling in a panel of 340 wild-type kinases (Reaction Biology Europe)", "format": "binding"}, "340 wild-type kinases [2]": {"biological_target": "T2, 340 wild-type kinases (Homo sapiens, UniProt Q9H093)", "T2 construct": "purchased Reaction Biology Europe", "T2 sequence (Q9H093 1-628)": "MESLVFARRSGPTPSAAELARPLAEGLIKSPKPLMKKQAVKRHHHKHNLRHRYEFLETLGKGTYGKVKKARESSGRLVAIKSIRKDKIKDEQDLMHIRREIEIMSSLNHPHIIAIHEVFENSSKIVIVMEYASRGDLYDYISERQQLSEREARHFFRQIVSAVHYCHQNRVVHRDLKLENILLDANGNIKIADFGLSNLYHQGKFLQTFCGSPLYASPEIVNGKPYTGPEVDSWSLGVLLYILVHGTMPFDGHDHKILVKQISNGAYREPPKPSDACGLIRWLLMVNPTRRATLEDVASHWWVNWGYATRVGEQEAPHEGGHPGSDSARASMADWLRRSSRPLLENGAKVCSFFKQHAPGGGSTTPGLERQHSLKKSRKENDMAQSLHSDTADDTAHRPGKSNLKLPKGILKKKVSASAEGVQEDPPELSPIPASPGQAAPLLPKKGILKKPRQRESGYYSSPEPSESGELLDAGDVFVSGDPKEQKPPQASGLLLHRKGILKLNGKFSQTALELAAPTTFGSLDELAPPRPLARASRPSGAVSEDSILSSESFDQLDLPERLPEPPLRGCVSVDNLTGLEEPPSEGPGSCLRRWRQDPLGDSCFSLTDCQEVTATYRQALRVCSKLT", "assay": "selectivity profiling in a panel of 340 wild-type kinases (Reaction Biology Europe)", "format": "binding"}, "KMP liver metastasis": {"test_system": "KMP liver metastasis", "assay": "survival of mice with KMP liver metastasis", "format": "in vivo, mouse", "description": "Subcutaneous injection, splenic seeding or cecum injection of organoids was performed in 8–10-week-old C57BL/6 N/Crl, Rag2^−/− (B6.Cg-Rag2^tm1.1Cgn/J), or CB17 Scid beige (CB17.Cg-Prkdc^scidLyst^bg-J/Crl) mice, obtained from Charles River. The organoids were dissociated into single cells, washed with PBS and injected in a 1:1 mixture of PBS and Matrigel. For murine organoids, 1 × 10^5 cells were injected into the left and right flanks or the spleen capsule and 2 × 10^6 cells were injected into the cecum wall. For human organoids, 4 × 10^5 cells were injected into the flanks of CB17 Scid beige mice. For splenic seeding and cecum injection, mice were anaesthetized using ketamine (100 mg kg^−1, intraperitoneally) and xylazin (10 mg/kg, intraperitoneally) in NaCl and a small laparotomy below the thorax was performed.\nNo mice were excluded during treatment studies."}, "340 wild-type kinases [3]": {"biological_target": "T3, 340 wild-type kinases (Homo sapiens, UniProt Q8NG66)", "T3 construct": "purchased Reaction Biology Europe", "T3 sequence (Q8NG66 1-645)": "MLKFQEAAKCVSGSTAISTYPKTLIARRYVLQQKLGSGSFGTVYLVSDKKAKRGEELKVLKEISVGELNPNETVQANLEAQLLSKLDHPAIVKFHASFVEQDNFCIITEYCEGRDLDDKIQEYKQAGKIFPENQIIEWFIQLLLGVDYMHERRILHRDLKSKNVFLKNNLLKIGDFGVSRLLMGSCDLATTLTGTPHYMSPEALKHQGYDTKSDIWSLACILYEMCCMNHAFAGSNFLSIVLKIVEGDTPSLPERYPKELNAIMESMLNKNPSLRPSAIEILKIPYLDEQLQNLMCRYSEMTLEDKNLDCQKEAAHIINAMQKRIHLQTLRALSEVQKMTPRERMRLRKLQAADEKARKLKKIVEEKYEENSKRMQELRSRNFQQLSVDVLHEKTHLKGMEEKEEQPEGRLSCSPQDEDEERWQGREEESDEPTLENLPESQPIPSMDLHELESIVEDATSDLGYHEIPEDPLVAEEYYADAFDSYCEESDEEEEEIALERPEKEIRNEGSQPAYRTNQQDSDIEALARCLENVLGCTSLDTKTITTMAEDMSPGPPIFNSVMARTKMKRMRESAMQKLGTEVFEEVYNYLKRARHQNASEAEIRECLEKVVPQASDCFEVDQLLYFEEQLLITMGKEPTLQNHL", "assay": "selectivity profiling in a panel of 340 wild-type kinases (Reaction Biology Europe)", "format": "binding", "settings": "0.2 µM 2015; read-out: NEK11 residual activity", "text": "(§1) Potential interactions between 2015 and 340 wild-type kinases were checked by means of a competition binding assay performed by Reaction Biology Europe (Supplementary Table 15)."}, "340 wild-type kinases [4]": {"biological_target": "T4, 340 wild-type kinases (Homo sapiens, UniProt P11802)", "T4 construct": "purchased Reaction Biology Europe", "T4 sequence (P11802 whole entry)": "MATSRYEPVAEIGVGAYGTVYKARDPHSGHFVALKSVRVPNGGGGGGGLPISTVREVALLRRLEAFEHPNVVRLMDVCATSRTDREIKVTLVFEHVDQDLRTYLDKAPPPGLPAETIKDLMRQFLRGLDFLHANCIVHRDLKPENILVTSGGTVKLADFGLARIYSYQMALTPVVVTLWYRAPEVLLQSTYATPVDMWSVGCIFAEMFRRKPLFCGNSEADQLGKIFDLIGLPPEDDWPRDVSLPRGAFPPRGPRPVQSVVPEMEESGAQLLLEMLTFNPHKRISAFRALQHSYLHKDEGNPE", "assay": "selectivity profiling in a panel of 340 wild-type kinases (Reaction Biology Europe)", "format": "binding", "settings": "CDK4/CycD1; 1 µM; read-out: residual activity", "text": "as §1"}, "340 wild-type kinases [5]": {"biological_target": "T5, 340 wild-type kinases (Homo sapiens, UniProt P25098)", "T5 construct": "purchased Reaction Biology Europe", "T5 sequence (P25098 1-689)": "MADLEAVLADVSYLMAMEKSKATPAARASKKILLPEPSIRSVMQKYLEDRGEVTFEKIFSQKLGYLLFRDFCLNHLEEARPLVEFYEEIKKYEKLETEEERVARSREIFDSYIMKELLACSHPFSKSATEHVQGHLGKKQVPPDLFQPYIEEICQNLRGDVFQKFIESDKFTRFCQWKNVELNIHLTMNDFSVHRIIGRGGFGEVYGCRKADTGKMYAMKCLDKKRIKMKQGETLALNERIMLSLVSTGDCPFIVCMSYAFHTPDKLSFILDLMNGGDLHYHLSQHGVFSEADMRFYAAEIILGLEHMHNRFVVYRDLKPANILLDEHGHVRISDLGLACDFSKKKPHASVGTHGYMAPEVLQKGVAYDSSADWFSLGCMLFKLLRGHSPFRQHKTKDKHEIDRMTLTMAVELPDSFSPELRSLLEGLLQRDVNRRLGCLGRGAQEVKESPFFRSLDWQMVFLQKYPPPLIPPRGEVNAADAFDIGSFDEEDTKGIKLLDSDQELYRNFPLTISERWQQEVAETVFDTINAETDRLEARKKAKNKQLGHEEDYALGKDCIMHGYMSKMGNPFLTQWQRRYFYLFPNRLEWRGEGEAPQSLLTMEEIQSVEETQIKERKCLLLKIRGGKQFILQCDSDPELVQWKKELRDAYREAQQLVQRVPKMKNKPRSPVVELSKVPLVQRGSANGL", "assay": "selectivity profiling in a panel of 340 wild-type kinases (Reaction Biology Europe)", "format": "binding", "settings": "1 µM 2015; read-out: GRK2 residual activity", "text": "as §1"}},
  "note": "Where “and” joins values, the source holds several entries; their conditions need not be identical. Equal values may be shown once. Read-outs that look alike come from different tables or passages of the source.",
  "data": [
    {"smiles": "CNC(=O)c1ccc2c(c1)C(=O)c1ccc(Nc3ccc(F)c(NC(=O)C4CC4)c3)cc1CC2", "note": "[Compound 2015]", "values": [
      {"measurement": "remaining activity at 0.2 µM", "setting": "340 wild-type kinases [1]; 0.2 µM 2015, read-out: CDK3/CycC residual activity", "result": 104, "unit": "%"},
      {"measurement": "remaining activity at 0.2 µM", "setting": "340 wild-type kinases [1]; 0.2 µM 2015, read-out: CDK3/CycE1 residual activity", "result": 88.9, "unit": "%"},
      {"measurement": "remaining activity at 1 µM", "setting": "340 wild-type kinases [1]; 1 µM 2015, read-out: CDK3/CycC residual activity", "result": 96.3, "unit": "%"},
      {"measurement": "remaining activity at 1 µM", "setting": "340 wild-type kinases [1]; 1 µM 2015, read-out: CDK3/CycE1 residual activity", "result": 81.7, "unit": "%"},
      {"measurement": "remaining activity at 0.2 µM", "setting": "340 wild-type kinases [1]; CDK3/CycC, 0.2 µM, read-out: residual activity", "result": 104, "unit": "%"},
      {"measurement": "remaining activity at 1 µM", "setting": "340 wild-type kinases [1]; CDK3/CycC, 1 µM, read-out: residual activity", "result": 96.3, "unit": "%"},
      {"measurement": "remaining activity at 0.2 µM", "setting": "340 wild-type kinases [1]; CDK3/CycE1, 0.2 µM, read-out: residual activity", "result": 88.9, "unit": "%"},
      {"measurement": "remaining activity at 1 µM", "setting": "340 wild-type kinases [1]; CDK3/CycE1, 1 µM, read-out: residual activity", "result": 81.7, "unit": "%"},
      {"measurement": "remaining activity at 0.2 µM", "setting": "340 wild-type kinases [2]; 0.2 µM 2015, read-out: SNARK residual activity", "result": 97, "unit": "%"},
      {"measurement": "remaining activity at 1 µM", "setting": "340 wild-type kinases [2]; 1 µM 2015, read-out: SNARK residual activity", "result": 92.5, "unit": "%"},
      {"measurement": "remaining activity at 0.2 µM", "setting": "340 wild-type kinases [2]; SNARK, 0.2 µM, read-out: residual activity", "result": 97, "unit": "%"},
      {"measurement": "remaining activity at 1 µM", "setting": "340 wild-type kinases [2]; SNARK, 1 µM, read-out: residual activity", "result": 92.5, "unit": "%"},
      {"measurement": "Survival (d of treatment)", "setting": "KMP liver metastasis; individual mice, KMP liver metastasis, treatment started 1 week after transplantation", "result": "42 days and 50 days and 29 days and 31 days and 35 days and 44 days"},
      {"measurement": "Kaplan–Meier event entry in 2015 (1 or 0)", "setting": "KMP liver metastasis; individual mice, KMP liver metastasis, meaning of 1/0 not given", "result": "1 and 0"},
      {"measurement": "survival of mice with KMP liver metastasis (in words)", "setting": "KMP liver metastasis; long-term treatment", "result": "significantly prolonged survival"},
      {"measurement": "remaining activity at 0.2 µM", "setting": "340 wild-type kinases [3]", "result": 91.3, "unit": "%"},
      {"measurement": "remaining activity at 1 µM", "setting": "340 wild-type kinases [4]", "result": 98.4, "unit": "%"},
      {"measurement": "remaining activity at 1 µM", "setting": "340 wild-type kinases [5]", "result": 80.8, "unit": "%"}
    ]}
  ]
}
